Assay [1] has as its target T1, human GSK3α (Homo sapiens, UniProt P49840).
T1 construct: Full length human GSK3α or GSK3B expressed as N-terminal GST fusion proteins; GST (N); purchased Carna Biosciences (Japan); host or cells: baculovirus host
The experiment in a line: In vitro enzymatic activity assay, GSK3α. It counts as biochemical. The settings on record: 1.0 mM ATP, 1.0 μM peptide substrate, 120 min, 25° C, read-out: Enzyme GSK3α (IC50).

Assay [2] addresses T2, GSK3A (Homo sapiens, UniProt P49840).
T2 construct: expressed in transfected cells
The experiment in a line: NanoBRET cellular target engagement assay, Nanoluc-GSK3A in HEK293 cells. It counts as cell-based. The settings on record: NanoBRET GSK3α IC50, HEK293 cells, tracer K-8, 2 hours, 37° C. For orientation: Bioluminescence resonance energy transfer reports proximity on the nanometre scale.

The target in assay [3] is T3, GSK3B (Homo sapiens, UniProt P49841). The experiment in a line: NanoBRET cellular target engagement assay, Nanoluc-GSK3B in HEK293 cells. It is filed as cell-based. Set-up: expressed in transfected cells. The settings on record: NanoBRET GSK3β IC50, HEK293 cells, tracer K-8, 2 hours, 37° C.
Assay [4] deals with T3, GSK3B. The experiment in a line: In vitro enzymatic activity assay, GSK3β. The arrangement: Full length human GSK3α or GSK3B expressed as N-terminal GST fusion proteins; GST (N); purchased Carna Biosciences (Japan); host or cells: baculovirus host. Particulars: 1.0 mM ATP, 1.0 μM peptide substrate, 120 min, 25° C, read-out: Enzyme GSK3β (IC50). It counts as biochemical.

SMILES strings stand for the structures.

Consider 17 molecules from patent US20260327191A1, “GSK3a INHIBITORS AND METHODS OF USE THEREOF” (Blueprint Medicines Corporation, priority 2023, published 2026).

T3 sequence (P49841 whole entry, the tested form may be a part): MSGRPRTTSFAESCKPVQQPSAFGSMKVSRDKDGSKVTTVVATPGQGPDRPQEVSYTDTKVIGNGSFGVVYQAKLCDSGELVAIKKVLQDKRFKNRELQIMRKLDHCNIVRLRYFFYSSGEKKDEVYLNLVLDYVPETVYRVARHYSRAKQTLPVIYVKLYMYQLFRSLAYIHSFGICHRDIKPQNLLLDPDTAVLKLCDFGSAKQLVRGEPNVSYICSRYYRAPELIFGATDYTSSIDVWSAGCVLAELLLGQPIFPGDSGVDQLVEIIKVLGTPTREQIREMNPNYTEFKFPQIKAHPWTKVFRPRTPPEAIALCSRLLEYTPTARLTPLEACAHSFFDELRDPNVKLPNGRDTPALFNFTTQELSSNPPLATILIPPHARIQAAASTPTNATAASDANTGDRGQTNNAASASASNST
T1 sequence (P49840 whole entry, the tested form may be a part): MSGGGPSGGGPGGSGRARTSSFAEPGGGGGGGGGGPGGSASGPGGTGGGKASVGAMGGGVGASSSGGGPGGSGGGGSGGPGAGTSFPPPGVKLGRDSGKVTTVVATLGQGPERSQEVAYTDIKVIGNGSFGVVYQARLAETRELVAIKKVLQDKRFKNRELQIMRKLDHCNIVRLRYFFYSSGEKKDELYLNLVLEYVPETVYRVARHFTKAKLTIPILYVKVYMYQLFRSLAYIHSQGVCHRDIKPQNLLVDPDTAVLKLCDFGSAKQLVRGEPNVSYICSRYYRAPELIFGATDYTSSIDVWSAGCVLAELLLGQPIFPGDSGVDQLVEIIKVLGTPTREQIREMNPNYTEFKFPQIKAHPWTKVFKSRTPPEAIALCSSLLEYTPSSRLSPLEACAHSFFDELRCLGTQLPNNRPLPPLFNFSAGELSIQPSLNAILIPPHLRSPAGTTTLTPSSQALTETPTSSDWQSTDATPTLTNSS
T2 sequence (P49840 whole entry): as the sequence (P49840 whole entry, the tested form may be a part) above

By IC50 is commonly meant the concentration that gives 50% inhibition. `COC[C@](C)(N)c1cncc(NC(=O)c2c(N)ncn(-c3c(Cl)cc(OC)cc3Cl)c2=O)c1` (single isomer, unassigned) [Example 31, (R)-4-amino-N-(5-(2-amino-1-methoxypropan-2-yl)pyridin-3-yl)-1-(2,6-dichloro-4-methoxyphenyl)-6-oxo-1,6-dihydropyrimidine-5-carboxamide or (S)-4-amino-N-(5-(2-amino-1-methoxypropan-2-yl)pyridin-3-yl)-1-(2,6-dichloro-4-methoxyphenyl)-6-oxo-1,6-dihydropyrimidine-5-carboxamide]: the IC50 is 6.9 nM in assay [1], 5 nM in assay [2], 418 nM in assay [3] and 405 nM in assay [4].
In the same order, the values of `CCC(N)c1cncc(NC(=O)c2c(N)ncn(-c3c(C)cc(C(F)F)cc3C)c2=O)c1` (single isomer, unassigned) [Example 128, (R)-4-amino-N-(5-(1-aminopropyl)pyridin-3-yl)-1-(4-(difluoromethyl)-2,6-dimethylphenyl)-6-oxo-1,6-dihydropyrimidine-5-carboxamide or (S)-4-amino-N-(5-(1-aminopropyl)pyridin-3-yl)-1-(4-(difluoromethyl)-2,6-dimethylphenyl)-6-oxo-1,6-dihydropyrimidine-5-carboxamide] are 19 nM, 7.7 nM, 546 nM and 1180 nM.
The matching figures for `CN[C@@H](COC)c1cncc(NC(=O)c2c(N)ncn(-c3c(Cl)cc(OC)cc3Cl)c2=O)c1` (single isomer, unassigned) [Example 80, (R)-4-amino-1-(2,6-dichloro-4-methoxyphenyl)-N-(5-(2-methoxy-1-(methylamino)ethyl)pyridin-3-yl)-6-oxo-1,6-dihydropyrimidine-5-carboxamide or (S)-4-amino-1-(2,6-dichloro-4-methoxyphenyl)-N-(5-(2-methoxy-1-(methylamino)ethyl)pyridin-3-yl)-6-oxo-1,6-dihydropyrimidine-5-carboxamide]: 2.5 nM, 2.9 nM, 271 nM and 270 nM.
In the same order, the values of `Cc1cc(C(F)F)cc(C)c1-n1cnc(N)c(C(=O)Nc2cncc(C3CCCC(C)N3)c2)c1=O` (single isomer, unassigned) [Example 107] are 10 nM, 3.9 nM, 434 nM and 671 nM.
On to `NCc1cncc(NC(=O)c2c(N)ncn(-c3c(Cl)cc(C(F)(F)F)cc3Cl)c2=O)c1` [Example 120, 4-amino-N-(5-(aminomethyl)pyridin-3-yl)-1-(2,6-dichloro-4-(trifluoromethyl)phenyl)-6-oxo-1,6-dihydropyrimidine-5-carboxamide], for which the IC50 in assay [1] stood at 9.4 nM; in assay [2], 4.4 nM; in assay [3], 274 nM; in assay [4], 442 nM.
The matching figures for `COc1cc(C)c(-n2cnc(N)c(C(=O)Nc3cccc(C4(N)CCC4)c3)c2=O)c(Cl)c1` [Example 38, 4-amino-N-(3-(1-aminocyclobutyl)phenyl)-1-((S)-2-chloro-4-methoxy-6-methylphenyl)-6-oxo-1,6-dihydropyrimidine-5-carboxamide]: 4.6 nM, 3.6 nM, 230 nM and 282 nM.
With `COc1cc(C)c(-n2cnc(N)c(C(=O)Nc3cccc([C@@H]4CCCN4)c3)c2=O)c(Cl)c1` (atropisomer, axis not shown) [Example 36, (S)-4-amino-1-((S)-2-chloro-4-methoxy-6-methylphenyl)-6-oxo-N-(3-(pyrrolidin-2-yl)phenyl)-1,6-dihydropyrimidine-5-carboxamide], the IC50 in assay [1] was determined as 7.3 nM; in assay [2], 4.4 nM; in assay [3], 290 nM; in assay [4] it was 302 nM.
With `Cc1cc(C(F)(F)F)cc(C)c1-n1cnc(N)c(C(=O)Nc2cncc(C3CCCC(C)N3)c2)c1=O` (single isomer, unassigned) [Example 90], the IC50 in assay [1] came to 15.6 nM; in assay [2], 6.5 nM; in assay [3], 700 nM; in assay [4] it was 1070 nM.
The matching figures for `Nc1ncn(-c2c(Cl)cc(F)cc2Cl)c(=O)c1C(=O)Nc1cncc([C@@H]2CCCN2)c1` [Example 149, (S)-4-amino-1-(2,6-dichloro-4-fluorophenyl)-6-oxo-N-(5-(pyrrolidin-2-yl)pyridin-3-yl)-1,6-dihydropyrimidine-5-carboxamide]: 13.4 nM, 8.6 nM, 519 nM and 552 nM.
As for `COC(=O)c1cc(Cl)c(-n2cnc(N)c(C(=O)Nc3cncc([C@@H]4CCCCN4)c3)c2=O)c(Cl)c1` [Example 196, methyl(S)-4-(4-amino-6-oxo-5-((5-(piperidin-2-yl)pyridin-3-yl)carbamoyl)pyrimidin-1 (6H)-yl)-3,5-dichlorobenzoate], the 50% inhibitory concentration (IC50) in assay [1] was 6.6 nM; in assay [2], 4.2 nM; in assay [3], 242 nM; in assay [4] it was 400 nM.
For the molecule `CCOCc1cc(Cl)c(-n2cnc(N)c(C(=O)Nc3cncc(C(N)CC)c3)c2=O)c(Cl)c1` (single isomer, unassigned) [Example 129, (R)-4-amino-N-(5-(1-aminopropyl)pyridin-3-yl)-1-(2,6-dichloro-4-(ethoxymethyl)phenyl)-6-oxo-1,6-dihydropyrimidine-5-carboxamide or (S)-4-amino-N-(5-(1-aminopropyl)pyridin-3-yl)-1-(2,6-dichloro-4-(ethoxymethyl)phenyl)-6-oxo-1,6-dihydropyrimidine-5-carboxamide], the IC50 in assay [1] came to 2.1 nM; in assay [2], 1.2 nM; in assay [3] it was 81.7 nM; in assay [4] it was 105 nM.
In the same order, the values of `CCOc1cc(Cl)c(-n2cnc(N)c(C(=O)Nc3cncc(CNCCS(C)(=O)=O)c3)c2=O)c(Cl)c1` [Example 165, 4-amino-1-(2,6-dichloro-4-ethoxyphenyl)-N-(5-(((2-(methylsulfonyl)ethyl)amino)methyl)pyridin-3-yl)-6-oxo-1,6-dihydropyrimidine-5-carboxamide] are 10.8 nM, 9.3 nM, 1120 nM and 434 nM.
In the same order, the values of `CCNCc1cncc(NC(=O)c2c(N)ncn(-c3c(Cl)cc(-c4ncco4)cc3Cl)c2=O)c1` [Example 201, 4-amino-1-(2,6-dichloro-4-(oxazol-2-yl)phenyl)-N-(5-((ethylamino)methyl)pyridin-3-yl)-6-oxo-1,6-dihydropyrimidine-5-carboxamide] are 13.7 nM, 7.4 nM, 430 nM and 608 nM.
For the molecule `Cc1cc(C#N)cc(Cl)c1-n1cnc(N)c(C(=O)Nc2cccc([C@@H]3CCCCN3)c2)c1=O` (single isomer, unassigned) [Example 41, (S)-4-amino-1-((S)-2-chloro-4-cyano-6-methylphenyl)-6-oxo-N-(3-(piperidin-2-yl)phenyl)-1,6-dihydropyrimidine-5-carboxamide or (R)-4-amino-1-((S)-2-chloro-4-cyano-6-methylphenyl)-6-oxo-N-(3-(piperidin-2-yl)phenyl)-1,6-dihydropyrimidine-5-carboxamide], the IC50 in assay [1] came to 12.1 nM; in assay [2], 5.9 nM; in assay [3], 386 nM; in assay [4], 605 nM.
In the same order, the values of `CCOCC(N)c1cncc(NC(=O)c2c(N)ncn(-c3c(Cl)cc(OCC)cc3Cl)c2=O)c1` (single isomer, unassigned) [Example 140, (R)-4-amino-N-(5-(1-amino-2-ethoxyethyl)pyridin-3-yl)-1-(2,6-dichloro-4-ethoxyphenyl)-6-oxo-1,6-dihydropyrimidine-5-carboxamide or (S)-4-amino-N-(5-(1-amino-2-ethoxyethyl)pyridin-3-yl)-1-(2,6-dichloro-4-ethoxyphenyl)-6-oxo-1,6-dihydropyrimidine-5-carboxamide] are 24.2 nM, 9.2 nM, 616 nM and 1240 nM.
Turning to `C[C@@H](N)c1cncc(NC(=O)c2c(N)ncn(-c3c(Cl)cc(C(F)F)cc3Cl)c2=O)c1` (single isomer, unassigned) [Example 57, (R)-4-amino-N-(5-(1-aminoethyl)pyridin-3-yl)-1-(2,6-dichloro-4-(difluoromethyl)phenyl)-6-oxo-1,6-dihydropyrimidine-5-carboxamide or (S)-4-amino-N-(5-(1-aminoethyl)pyridin-3-yl)-1-(2,6-dichloro-4-(difluoromethyl)phenyl)-6-oxo-1,6-dihydropyrimidine-5-carboxamide], the IC50 in assay [1] worked out at 7.9 nM; in assay [2], 5.4 nM; in assay [3] it was 277 nM; in assay [4], 382 nM.
In the same order, the values of `CN[C@H](C)c1cccc(NC(=O)c2c(N)ncn(-c3c(C)cc(OC)cc3Cl)c2=O)c1` (atropisomer, axis not shown) [Example 2, (R)-4-amino-1-((S)-2-chloro-4-methoxy-6-methylphenyl)-N-(3-(1-(methylamino)ethyl)phenyl)-6-oxo-1,6-dihydropyrimidine-5-carboxamide] are 7 nM, 4.9 nM, 329 nM and 399 nM.
